# Laboratory results published in patent US20220395468A1, “Transdermal Drug Delivery Systems for Administration of a Therapeutically Effective Amount of Lenalidomide and Other Immunomodulatory Agents” (Starton Therapeutics, Inc., priority 2021, published 2022).
# Read-outs that look alike come from different tables or passages of the source.
# Columns and labels:
# [1] = FIG. 10
# Description: In vitro permeability of lenalidomide through human cadaver skin was conducted using in vitro franz diffusion cells to identify potential permeation enhancers for lenalidomide. Donor compartment was loaded with Lenalidomide solution or gel.
# Lenalidomide H1 solutions were prepared in following different solvents Lactic acid, Dimethyl sulfoxide, NMP, Levulinic acid, Super refined PEG 400, Tween 40, Polysorbate 80.
# Lenalidomide gels were prepared using a following solvent system composition (Table 7). Gels were made with 10 different permeation enhancers.
# [2] = remark: listed apart in the source
# Description: Next, the solubility of lenalidomide H1 was determined in silicone polymer-based pressure sensitive adhesives and acrylic polymer-based pressure sensitive adhesives. Pressure sensitive adhesive polymers are the major component of the pressure sensitive adhesives matrix patches and typically constitute 50%-85% of the formulation.
# [3] = cited from earlier work
# [4] = people with high-risk SMM, oral; cited from earlier work
# [5] = cited from earlier work; remark: listed apart in the source
structure (smiles),measurement,setting,value
Nc1cccc2c1CN(C1CCC(=O)NC1=O)C2=O (stereo not drawn) [Lenalidomide H1],Solubility,Aquasolve HPMC-AS MF (0.25 G) + Solvent system Acetone:Methanol (1:1),1.2 % W/W
same,Solubility,Eudragit + Solvent system Acetone:Methanol (1:1),0.9 % W/W
same,Solubility,Kollidon 30 (0.5 G) + Solvent system Acetone:Methanol (1:1),2.2 % W/W
same,Solubility,Kollidon 90 F (0.5 G) + Solvent system Acetone:Methanol (1:1),2.0 % W/W
same,Solubility,Kollidon VA 64 (0.5 G) + Solvent system Acetone:Methanol (1:1),2.1 % W/W
same,Solubility,Kollisolv P124 Geismer (0.27 G) + Solvent system Acetone:Methanol (1:1),0.9 % W/W
same,Solubility,in Acetone,0.2 % W/W
same,Solubility,in Acetonitrile,0.3 % W/W
same,Solubility,in Dimethyl sulfoxide,20.7 % W/W
same,Solubility,in Ethanol 190 Proof,0.2 % W/W
same,Solubility,in Ethyl acetate,<0.1 % W/W
same,Solubility,in Heptane,<0.1 % W/W
same,Solubility,in Isooctadecanoic acid,<0.1 % W/W
same,Solubility,in Lactic acid,9.3 % W/W
same,Solubility,in Lauryl Lactate,0.1 % W/W
same,Solubility,in Levulinic acid,5.5 % W/W
same,Solubility,in Methanol,0.3 % W/W
same,Solubility,in Methanol:Acetone (1:1),0.9 % W/W
same,Solubility,in Methyl Laurate,<0.1 % W/W
same,Solubility,in NMP,29.3 % W/W
same,Solubility,in Propylene Glycol,0.4 % W/W
same,Solubility,in Propylene Glycol monolaurate,<0.1 % W/W
same,Solubility,in Super refined PEG 400,1.6 % W/W
same,Solubility,in Toluene,<0.1 % W/W
same,rate of lenalidomide permeation,[1]; solution in Lactic acid,highest rate
same,rate of lenalidomide permeation,[1]; solution in Levulinic acid,negligible permeation
same,rate of lenalidomide permeation,[1]; solutions in NMP and DMSO,followed by NMP and DMSO
same,rate of lenalidomide permeation,"[1]; solutions in SR PEG 400, TWEEN 40, Polysorbate 80",insignificant to no permeation
same,Lenalidomide H1 solubility,[2]; in BIO-PSA 7-4202 (silicone PSA),Less than 0.5% W/W
same,Lenalidomide H1 solubility,[2]; in Duro-Tak 87-2052 (acrylic PSA),Less than 0.5% W/W
same,Lenalidomide H1 solubility,[2]; in Duro-Tak 87-2074 (acrylic PSA),Less than 0.5% W/W
same,Lenalidomide H1 solubility,[2]; in Duro-Tak 87-2194 (acrylic PSA),Less than 0.5% W/W
same,Lenalidomide H1 solubility,[2]; in Duro-Tak 87-2516 (acrylic PSA),approximately 0.5% W/W
same,Lenalidomide H1 solubility,[2]; in Duro-Tak 87-2852 (acrylic PSA),Less than 0.5% W/W
same,Lenalidomide H1 solubility,[2]; in Duro-Tak 87-4098 (acrylic PSA),Less than 0.5% W/W
same,Lenalidomide H1 solubility,[2]; in Duro-Tak 87-9301 (acrylic PSA),Less than 0.5% W/W
"Nc1cccc2c1CN(C1CCC(=O)NC1=O)C2=O (stereo not drawn) [Lenalidomide, 3-(4-amino-1-3-dihydro-1-oxo-2H-isoindol-2yl)-2,6-piperidinedione]",Solubility,"in DMSO, room temperature",10-20%
same,Solubility,"in NMP, room temperature",about 30 % w/w
same,Solubility,in esters,less than 0.5%
same,Solubility,in glycols,less than 2%
same,Solubility,"in two organic acids, Lactic acid and levulinic acid",more than 5%
same,solubility of the LLD in solution,[3],400 to 500 µg/mL
same,discontinued due to drug-related side effects,[4],40%
same,three-year progression-free survival,[4],91%
same,log P,[5],−0.4
